Reference: patent US8551967B2, “Formulations with anti-tumour action” (Gentium SpA, priority 2003, dated 2013)
Like-named read-outs stand apart in the source and are kept apart here.

What was measured:
[1] = system: mammary carcinoma 13762; assay: Tumour growth delay in rats carrying mammary carcinoma 13762; settings: for Days to reach 500 mm^3 / TGD: chemotherapy alone, ip days 8 & 18; for Days to reach 500 mm^3: tumour implanted day 0; for TGD: versus controls
Method: The hepatotoxin monocrotaline and the AA carmustine (BCNU), alone or in association with DF, were tested in vivo in an experimental model which used rats carrying mammary carcinoma 13762.
Table 1. […] The tumour was implanted on day 0 and the chemotherapy was administered on day 8 and day 18.

[2] = system: MM cells; assay: In vitro direct cytotoxicity against MM cells; type: cell-based; settings: DF alone
[3] = system: MM-1S human MM cells; type: in vivo; settings: for Tumor volume: P<0.05
Method: It was also tested whether DF has in vivo activity in a murine model of human multiple myeloma (MM). Sixty male SCID/NOD mice (6-8 weeks old) were irradiated (450 rads) and, 24 hrs later, injected s.c. with 5×10^6 MM-1S human MM cells. Upon formation of palpable tumors, mice were randomly assigned to 6 cohorts (10 mice each) receiving a) vehicle; b) DF (i.v. 450 mg/kg b.i.d); c) melphalan (MEL) 2.5 mg/kg i.p. once weekly; d) cyclophosphamide (CTX) 50 mg/kg i.p., on days 8, 10, 12, 20, 22 and 24; e) and f) combinations of DF (300 mg/kg i.v.) with MEL or CTX, respectively. Mice were monitored q3 days for body weight, potential toxicity, and electronic caliper-based tumor volumes.
The major endpoints for efficacy were a) tumor volume changes and b) overall survival (time-to-sacrifice, performed when tumor diameters>2 cm).

[4] = system: bovine endothelial cells; assay: Cytotoxicity of alkylating agents with and without DF in bovine endothelial cells in culture; type: cell-based; settings: DF 50 μg/ml with alkylating agents
Source text: In the following study, DF was examined in combination with antiblastic cytotoxic agents in a model of mouse EMT-6 mammary carcinoma cells and in bovine endothelial cells, in cell cultures and in an experimental model in which rats carrying tumours subjected to high doses of chemotherapy were used.

[5] = system: Lewis pulmonary carcinoma; assay: Tumour growth and pulmonary metastases in mice carrying Lewis pulmonary carcinoma; type: in vivo; settings: DF added to paclitaxel with or without carboplatin
Source text: The mechanism underlying these effects remains to be explained, but it is possible that the anti-adhesive properties of DF are involved, given the role of cell adhesion in the mechanisms implicated in drug resistance (8, 9).

[6] = system: mouse EMT-6 mammary carcinoma cells; assay: Cytotoxicity of alkylating agents with and without DF in EMT-6 cells in culture
[7] = monocrotaline or BCNU together with DF
[8] = versus cytotoxic therapy alone, data not presented

Molecule | Days to reach 500 mm^3 [1] | TGD [1] | Direct in vitro cytotoxic effect [2] | Tumor volume ([3]; DF 300 mg/kg i.v. with MEL or CTX versus single-agent chemotherapy) | Tumor volume ([3]; DF i.v. 450 mg/kg b.i.d versus control mice) | Tolerability (hemorrhagic complications, body weight) ([3]; DF single agent (i.v. 450 mg/kg b.i.d) or 300 mg/kg i.v. with MEL or CTX, P>0.05) | Overall survival (time-to-sacrifice), Kaplan-Meier ([3]; DF single agent or with MEL or CTX, versus vehicle or MEL- or CTX-treated groups, P<0.001 log-rank) | Tumour growth delay (TGD), in words ([1]; DF alone versus control, p<0.05, repeat study) | Tumour growth delay (TGD), in words ([1]; DF associated with CTX and BCNU, p<0.04, greater than each agent alone, repeat study) | Additional toxicity in the animals [1, 7] | Tumour growth delay (TGD), in words [1, 7] | Increase in cytotoxicity of AAs in association with DF [4] | Toxicity [5] | Number of pulmonary metastases [5, 8] | Tumour growth (TGD) [5, 8] | Increment in the killing of tumour cells by 4HC ([6]; DF 50 μg/ml before and during, or during and after 4HC, 4HC 50-250 μmol) | Effect of DF on cytotoxicity of melphalan ([6]; DF before and during or during and after melphalan) | Effect of DF on cytotoxicity of carboplatin ([6]; DF with carboplatin, compared with thiotepa result)
O=NN(CCCl)C(=O)NCCCl [BCNU, carmustine] | 18.0 ± 2.5 days | 3.4 days | – | – | – | – | – | – | – | – | – | – | – | – | – | – | – | –
C[C@H]1C(=O)O[C@@H]2CCN3CC=C(COC(=O)[C@](C)(O)[C@]1(C)O)[C@H]23 [Monocrotaline, monocrotaline] | 15.6 ± 1.0 days | 1.0 days | – | – | – | – | – | – | – | – | – | – | – | – | – | – | – | –
defibrotide [DF] | – | – | have not shown a significant direct in vitro cytotoxic effect | significantly lower tumor volumes than the respective single-agent cytotoxic chemotherapy | significantly lower tumor volumes than in control mice | well tolerated without hemorrhagic complications or body weight loss | statistically significant prolongation of overall survival | significant tumour growth delay | particularly significant | no additional toxicity | significant tumour growth delay | no increase in cytotoxicity | without showing an obvious increase in toxicity | reduction | reduction in tumour growth | 2 logarithmic units | did not show any significant effect | A similar result
